Common to all, as to format: cell-based, human
Assay [1] deals with HGF. The assay can be described thus: qPCR (TLDA) HGF gene expression in HFDPC. Particulars: peptide, 24 hours, relative to untreated controls. Further details: dose or concentration left out as unconfirmed. How it is done: (§1) RNA was extracted and purified from cell pellets using the RNA XS Kit (Macherey-Nagel). RNA quantification was carried out with a NanoDrop device and sample quality was verified on a Bioanalyzer with RNA 6000 Nano chips (Agilent). cDNA was synthesized from 300 ng of RNA using the High-Capacity cDNA Reverse Transcription Kit (LifeTech). Quality-control qPCR assays of the cDNA were carried out in microplates on the reference gene, GAPDH, and the SIRT1 gene.
(§2) Final qPCR experiments were carried out in a 1 μl volume on microfluidic cards (TaqMan Low Density Arrays, LifeTech) and the ABI 7900HT qPCR device. Amplification reactions were performed in duplicate using 1 to 2 ng of cDNA per qPCR reaction and TaqMan Universal Master Mix II (LifeTech).
(§3) Ct values were obtained using the RQ Manager software. For analyses of qPCR results, Ct values were limited to 35 cycles and the duplicate assays are averaged. The GeneXPro software was used for the studies of stability and of selection of the best reference genes. Expression variations are calculated by the relative quantification method and are expressed as percent increase in expression of the gene of interest relative to the untreated controls.
In general terms: In qPCR the cycle at which signal appears reflects the starting amount.

The test system of assay [2] is SCF. The assay can be described thus: SCF secretion by NHDF (ELISA/BioPlex). The conditions noted are these: 48h. How it is done: (§4) NHDF, HFDPC, HHFK and NHEM cells were treated with the peptides studied for 48h. At the end of the treatment, cell supernatants were collected and stored at −80° C. until analysis. The factors of interest secreted into the supernatant were assayed by ELISA® (R&D) or BioPlex® (BioRad®).
(§5) The results are expressed as percent increase in the concentration of the factor present in the supernatant relative to the untreated control. The intensity of the effect varies as a function of the concentration of the peptide studied and of the cell type treated.
Background: ELISA stands for enzyme-linked immunosorbent assay.

Assay [3] deals with NGF. The assay can be described thus: NGF secretion by NHDF (ELISA/BioPlex). The conditions noted are these: 10^−7 M, 48h. How it is done:
as §4, §5

For assay [4], the system named is HGF. Description: HGF secretion by NHDF (ELISA/BioPlex). Particulars: 48h. How it is done:
as §4, §5

Assay [5] deals with KGF. Description: qPCR (TLDA) KGF gene expression in HFDPC. The arrangement: dose or concentration left out as unconfirmed. The conditions noted are these: peptide, 24 hours, relative to untreated controls. The procedure:
as §1, §2, §3

Assay [6] concerns VEGF. The assay can be described thus: qPCR (TLDA) VEGF gene expression in HFDPC. Particulars: peptide 10^−5 M (table title), 24 hours, relative to untreated controls. The procedure: as §1, §2, §3
Assay [7] relates to PDGF. The assay can be described thus: qPCR (TLDA) PDGF gene expression in HFDPC. Particulars: peptide, 24 hours, relative to untreated controls. The arrangement: dose or concentration left out as unconfirmed. How it is done:
as §1, §2, §3

In assay [8] the test system is SCF. The assay can be described thus: SCF secretion by HHFK (ELISA/BioPlex). The conditions noted are these: 10^−7 M, 48h. How it is done: as §4, §5
For assay [9], the system named is PDGF. Description: PDGF secretion by HFDPC (ELISA/BioPlex). The conditions noted are these: 48h. The procedure:
as §4, §5

Assay [10] has as its system genes whose expression is reduced in subjects characterized by alopecia. Description: qPCR (TLDA) overall statement, genes involved in alopecia, HFDPC. Particulars: summary of Table 1. How it is done:
(§6) To study the effect of 9 peptides on these genes, HFDPC were treated for 24 hours with the molecules tested at 10^−7M and 10^−9M concentrations.
as §1, §2, §3

In assay [11] the test system is VEGF. The assay can be described thus: VEGF secretion by NHDF (ELISA/BioPlex). Particulars: 10^−5 M, 48h. The procedure: as §4, §5
The test system of assay [12] is follicular markers. The assay can be described thus: Follicular markers in isolated hair ex vivo (immunolabeling). Particulars: end of treatment D11 or D12, value = marker increased. The procedure: (§7) This study was carried out on microdissected hairs from scalp surgery specimens from women aged 52 to 71 years. Isolated hairs were kept alive for 11 to 12 days in Williams medium, under conventional cell culture conditions (37° C., 5% CO2). […]
(§8) To evaluate the effect of (1), (6) or (9) on hair growth, the hairs were photographed and their lengths measured using image analysis software. Thus, the growth of the hairs between D0 and D11/D12 could be calculated and compared with that of the untreated control. At the end of the treatments (D11 or D12), the hairs were collected and frozen or fixed for immunolabeling and histological staining.

In assay [13] the test system is HGF. The assay can be described thus: HGF secretion by HHFK (ELISA/BioPlex). Particulars: 10^−7 M, 48h. How it is done: as §4, §5
For assay [14], the system named is VEGF. Description: VEGF secretion by HFDPC (ELISA/BioPlex). The conditions noted are these: 10^−5 M, 48h. How it is done: as §4, §5
Assay [15] deals with microdissected hairs from scalp surgery specimens. The assay can be described thus: Growth of isolated hair ex vivo. The conditions noted are these: ex vivo isolated hair. The procedure:
as §7, §8

Assay [16] deals with HGF. The assay can be described thus: HGF secretion by HFDPC (ELISA/BioPlex). The conditions noted are these: 48h. The procedure: as §4, §5
Assay [17] has as its system IGF1. Description: qPCR (TLDA) IGF1 gene expression in HFDPC. Particulars: peptide 10^−9, 24 hours, relative to untreated controls. How it is done: as §6, §1, §2, §3

The star is where a group is joined. Palmitoyl = CCCCCCCCCCCCCCCC(=O)*; Chol = cholesterol residue

Consider “Chol-Ala-Arg-Pro-Ala-Lys-NH2 (Chol-ARPAK-NH2) [(7)]”, for which the “% stimulation HGF gene expression” value in [1] turned out to be 49%. Besides, the “SCF secretion, percent increase relative to untreated control” value in assay [2] (10^−7 M) is reported as “SCF 10%”. Moreover, the “NGF secretion, percent increase relative to untreated control” value in assay [3] is “NGF 11%”. In addition, the “HGF secretion, percent increase relative to untreated control” value in [4] (10^−7 M) is given as “HGF 104%”.
With “Palm-Arg-Pro-Ala-Lys-OH (Palmitoyl-RPAK-OH; SMILES CCCCCCCCCCCCCCCC(=O)N[C@@H](CCCNC(=N)N)C(=O)N1CCC[C@H]1C(=O)N[C@@H](C)C(=O)N[C@@H](CCCCN)C(=O)O) [Peptide (9)]”, the “% stimulation KGF gene expression” value in assay [5] stood at 156%. Besides, the “% stimulation VEGF gene expression” value in assay [6] amounted to 93%. Moreover, the “SCF secretion, percent increase relative to untreated control” value is given as “SCF 8%” in [2] (10^−7 M) and “SCF 11%” in assay [8]. Besides, the “% stimulation PDGF gene expression” value in assay [7] is listed as 304%. Further, the “PDGF secretion, percent increase relative to untreated control” value was “PDGF 62%” in assay [9] (10^−5 M) and “PDGF 117%” in assay [9] (10^−7 M). Also, in assay [10], the “stimulation of genes whose expression is reduced in alopecia (in words)” value is reported as “stimulate several genes”. Besides, the results for the “VEGF secretion, percent increase relative to untreated control” value in assay [11] and in assay [14] were “VEGF 24%” and “VEGF 10%”, respectively. In addition, the “Follicular markers increased Vs Control” value in assay [12] (10^−7 M) and in assay [12] (10^−9 M) was “CK15” throughout. Further, the “HGF secretion, percent increase relative to untreated control” value in assay [13] is recorded as “HGF 94%”. Besides, the “Growth at D 11/D 12 Vs Control” value is given as “No effect” in [15] (10^−7 M) and “+5%” in assay [15] (10^−9 M).
H-Arg-Pro-Ala-Lys-OH (H-RPAK-OH) [(8)]: the “% stimulation KGF gene expression” value in [5] came to 14%. Further, the “HGF secretion, percent increase relative to untreated control” value was “HGF 8%” in assay [4] (10^−5 M), “HGF 26%” in [16] (10^−5 M) and “HGF 129%” in assay [16] (10^−7 M).
In the case of “Palm-Ala-Arg-Pro-Ala-Lys-OH (Palmitoyl-ARPAK-OH; SMILES CCCCCCCCCCCCCCCC(=O)N[C@@H](C)C(=O)N[C@@H](CCCNC(=N)N)C(=O)N1CCC[C@H]1C(=O)N[C@@H](C)C(=O)N[C@@H](CCCCN)C(=O)O) [(2)]”, the “% stimulation KGF gene expression” value in [5] was determined as 71%. Besides, in [6], the “% stimulation VEGF gene expression” value stood at 11%. Also, the “SCF secretion, percent increase relative to untreated control” value in assay [2] (10^−5 M) was “SCF 24%”; in [2] (10^−7 M) it was “SCF 37%”. Further, the “% stimulation PDGF gene expression” value in assay [7] is 29%. In addition, the “HGF secretion, percent increase relative to untreated control” value was “HGF 13%” in [4] (10^−7 M), “HGF 403%” in [16] (10^−5 M), “HGF 565%” in assay [16] (10^−7 M) and “HGF 28%” in assay [13]. In assay [10], the “stimulation of genes whose expression is reduced in alopecia (in words)” value is “stimulate several genes”. In assay [17], the “% stimulation IGF1 gene expression” value is recorded as 136% (10^−9).

Values taken from patent US10947273B2, “Peptides of use in the preventive and curative treatment of alopecia” (Institut Europeen de Biologie Cellulaire, priority 2015, dated 2021).
